Like-named read-outs stand apart in the source and are kept apart here.
Experiments:
Assay type in all cases: cell-based
[1] = tested on: Human mesenchymal stem cells; experiment: Measurement of stem cell proliferation capacity (Ez-Cytox, absorbance 450 nm); conditions: 1 uM; for increase of proliferation effect: cultured for 7 days, vs control without compound; for proliferation of stem cells: human mesenchymal stem cells, FIG. 1
Method: (§1) Human mesenchymal stem cells were cultured in DMEM medium (Invitrogen) containing 10% fetal bovine serum and 1% penicillin/streptomycin at 37° C. under 5% CO2, and the medium was changed every 3 days. After culturing the cells for 24 hours, P1P, cyclic P1P, and NAPS-1-P were dissolved in DMSO (Sigma) to a concentration of 2 mM, and appropriately diluted and added to the medium such that the final concentration was 1 μM. The absorbance was measured at 450 nm using Ez-Cytox at 24 hours (1 day), 48 hours (2 days), 120 hours (5 days) and 168 hours (7 days) after the addition, and the proliferation capacity of the stem cells according to P1P, cyclic P1P and NAPS-1 were measured. For the control group, an experiment was performed under the same conditions as above except that P1P, cyclic P1P and NAPS-1-P were not included.

[2] = tested on: human-derived adipose stem cells; experiment: Growth promoting capacity on human-derived adipose stem cells; conditions: cultured for 2 days, different concentrations; optimal effect at 10 nM and 100 nM, FIG. 2
Method: as §1
In addition, the growth promoting-capacity of human-derived adipose stem cells was examined.

[3] = tested on: human-derived adipose stem cells; experiment: Viability of stem cells with oxidative stress induced by hydrogen peroxide (H2O2); conditions: 6 hours after H2O2
Method: Human-derived adipose stem cells were cultured in DMEM medium containing 10% fetal bovine serum and 1% penicillin/streptomycin at 37° C. under 5% CO2. After culturing the cells for 24 hours, P1P, cP1P and NAPS-1-P were dissolved in DMSO to a concentration of 2 mM, and appropriately diluted and added to the medium such that the final concentrations were 10 nM, 100 nM, 1000 nM. After 1 hour of culture, 350 μM of H2O2 was added to the stem cells and cultured. After 6 hours, the absorbance was measured at 450 nm using Ez-Cytox, and the effect of P1P and derivatives thereof on the viability of stem cells against oxidative stress was measured. For the control group, an experiment was performed under the same conditions as above except that P1P, cyclic P1P, and NAPS-1-P were not included.

[4] = tested on: human-derived adipose stem cells; experiment: Stem cell viability according to concentration of fetal bovine serum (serum-free or low-serum medium); conditions: read-out: viability as compared with 10% fetal bovine serum
Method: Human-derived adipose stem cells were cultured in DMEM medium having different concentrations of fetal bovine serum at 37° C. under 5% CO2. After culturing for 24 hours, the cells were washed twice with PBS at 37° C. to remove the serum components. Then, the cells were cultured in new DMEM medium containing 1 μM P1P and 1% fetal bovine serum. After 4 days, the absorbance was measured at 450 nm using an Ez-Cytox Cell Viability Assay Kit (Daeil Biotech) to measure the viability of stem cells according the concentration of fetal bovine serum and P1P. For the control group, an experiment was performed under the same conditions as above except that P1P was not included.

[5] = tested on: human-derived adipose stem cells; experiment: Osteogenic differentiation capacity (Alizarin Red S staining); conditions: osteogenic differentiation medium
Method: Human-derived adipose stem cells were cultured in DMEM medium containing 10% fetal bovine serum and 1% penicillin/streptomycin at 37° C. under 5% CO2. After 24 hours of culture, P1P and derivatives thereof were diluted with the medium and added. After 24 hours of culture, the medium was replaced with a differentiation medium and changed with a differentiation medium every 3 days. The cells were cultured in alpha-DEM medium containing 10% fetal bovine serum, 10 nM dexamethasone, 0.2 mM ascorbic acid, 10 mM beta-glycerol phosphate and 1% penicillin/streptomycin at 37° C. under 5% CO2 as a composition for the differentiation medium. After 2 to 4 weeks, the stem cells were fixed and stained with Alizarin Red S. After removing the stem cell culture medium, the cells were washed 3 times with PBS, and after removal of PBS, the cells were fixed using 4% formaldehyde solution for 20 minutes at room temperature. After washing the cells 3 times with PBS, the cells were treated with a 2% Alizarin Red S solution for 20 minutes. […] For the control group, an experiment was performed under the same conditions as above except that P1P, cyclic P1P, and NAPS-1-P were not included.

[6] = fetal bovine serum reduced to 2%

Row | SMILES | increase of proliferation effect [1] [fold] | proliferation of stem cells [1] | cell growth / proliferation effect [2] | Cell viability (%) by H2O2 treatment (350 uM) ([3]; compound 10 nM) [%] | Cell viability (%) by H2O2 treatment (350 uM) ([3]; compound 100 nM) [%] | Cell viability (%) by H2O2 treatment (350 uM) ([3]; compound 1000 nM) [%] | viability at 1 µM [4, 6] [%] | viability at 1 µM ([4]; serum-free medium) [%] | osteogenic differentiation capacity [5]
1 | CCCCCCCCCCCCCC[C@@H](O)[C@@H](O)[C@H](COP(=O)(O)O)NC(C)=O [NAPS-1-P, N-acetyl phytosphingosine-1-phosphate] | 2 | promoted the proliferation of stem cells to a similar level | showed a higher proliferation effect | 75 | 83 | 86 | 70 to 80 | ~50 | 
2 | CCCCCCCCCCCCCC[C@@H](O)[C@H]1OP(=O)(O)OC[C@@H]1N [cP1P, O-cyclic P1P] | 2 | promoted the proliferation of stem cells to a similar level | showed a higher proliferation effect | 77 | 84 | 86 | 70 to 80 | ~50 | remarkably improved

— patent US20190292521A1, “COMPOSITION FOR PROMOTING GROWTH OF STEM CELLS COMPRISING PHYTOSPHINGOSINE-1-PHOSPHATE OR DERIVATIVES THEREOF, AND COMPOSITION FOR CULTURING MEDIA OF STEM CELLS COMPRISING SAME” (AXCESO BIOPHARMA CO., LTD., priority 2016, published 2019)
